{
  "source": "patent US6605730B2",
  "about": "“Intermediates for nematicidal pyrazoles” (priority 1998, dated 2003)",
  "key": {"Meloidogyne incognita [1]": {"tested_on": "Meloidogyne incognita", "assay": "Meloidogyne test (Test Example 6, infected soil, lettuce)", "type": "in vivo", "conditions": "active compound concentration 20 ppm, lettuce root galls", "protocol": "(§1) Test nematode: Meloidogyne incognita\nSolvent: 31 parts by weight of acetone\n(§2) Emulsifier: 1 part by weight of alkylaryl polyglycol ether\n(§3) To produce a suitable preparation of active compound, 1 part by weight of active compound is mixed with the stated amount of solvent and the stated amount of emulsifier is added and the concentrate is diluted with water to the desired concentration.\n(§4) The active compound preparation is intimately mixed with soil which is heavily infected with the test nematodes. The treated soil is transferred into pots, lettuce seeds are sown and the pots are kept in the greenhouse.\n(§5) After the desired time the lettuce roots are checked for infestation with nematodes (root galls) and the efficacy of the active compound in % is determined. The efficacy is 100% when infestation is avoided completely and 0% when infestation level is just as high as in the control plants in untreated but equally infested soil."}, "[2]": {"tested_on": "Nippostrongylus brasiliensis adult worms", "assay": "Test on Nippostrongylus brasiliensis, Lane, adult (acetylcholine esterase activity of incubation medium)", "type": "in vivo", "conditions": "100 μg/ml", "protocol": "The method was carried out, in accordance with a method described in Parasitol. Res., vol. 73 (1987) 191, Rapson, E. B. et al. N.brasiliensis adult worms are isolated from the small intestine of female Wister rats and in sodium chloride solution ([…]) supplemented with Canesten (2 mg/l) and Sisomycin (20 mg/l). Worms (five male and five female) were incubated, according to the method of Rapson et al, and the incubation medium was adjusted so as to give final concentrations of 100 μg/ml. The resulting incubation medium was for acetylcholine esterase activity, as performed by Rapso et al. using a scale 0-3 where 0=no activity (<50% enzyme inhibition) and 1, 2 and 3 weak, good and full activity (50-75, >75 and 100% enzyme inhibition, respectively)."}, "[3]": {"tested_on": "Trichinella spiralis larvae", "assay": "Test on Trichinella spiralis, Owen, larvae", "type": "in vivo", "conditions": "100 μg/ml; incubated at 19° C. for five days", "protocol": "The method was carried out, in accordance with a method described in Tropenmed. Parasitol., vol. 32 (1981), 31-34, Jenkins, D. C., and Carrington, T. S. T. spiralis larvae were isolated from skeletal muscles and diaphragms of SPF/CFW1 mice and stored in sodium chloride solution ([…]) supplemented with Canested (20 μg/ml). The larvae (20 per estimation) were incubated in 2 ml of a solution with the following composition: Casitone 20; yeast extract 10; glucose 5; potassium dihydrogen phosphate 0.8; dipotassium hydrogen phosphate 0.8 g/l in water (500 ml; pH 7.2) and supplemented with Sisomycin (10 mg/l) and Canesten (1 mg/l).\nThe test compound (10 mg) was dissolved in dimethylsulfoxide (0.5 ml) and added to the incubation medium containing the larvae to give final concentrations of 100 μg/ml. The mixture was incubated at 19° C. for five days, after which activity was assessed according to Jenkins and Carrington a scale 1-3 where 1=weak activity (fewer live larvae than in the untreated control); 2=good activity (>=50% more dead larvae than in the untreated control) and 3=full activity (all larvae dead)."}, "[4]": {"tested_on": "southern root-knot nematodes", "assay": "Test on root-knot nematodes (soil pot test, tomato)", "type": "in vivo", "conditions": "active ingredient 50 ppm in infested soil; tomato plants; after 4 weeks", "protocol": "Fine granular formulations were prepared by impregnating 99 parts of pumice with 1 part each of active compounds.\nEach of the active compounds prepared in the above-described manner was added to soil infested with southern root-knot nematodes so as to give an active ingredient concentration of 50 ppm, and intimately blended therein. This soil was charged into pots having an area of 1/5000 are, and about 20 tomato seeds (of the Kurihara variety) were sown in each pot. Tomato plants were grown in a greenhouse and, after 4 weeks, extracted so as not to injure their roots. Then, the root knot index and the controlling effect for each active compound were determined in the following manner.\n0: No knot was formed (perfectly controlled).\n1: Knots were formed to a slight degree.\n2: Knots were formed to a moderate degree.\n3: Knots were formed to a heavy degree.\n4: Knots were formed to the heaviest degree (corresponding to no treatment). [formula]\nAccording to the value of the controlling effect, the effectiveness was rated on the following basis.\na: The controlling effect was in the range of 100 to 71%.\nb: The controlling effect was in the range of 70 to 50%.\nc: The controlling effect was less than 50%.\nd: The controlling effect was 0%."}, "Meloidogyne incognita [5]": {"tested_on": "Meloidogyne incognita", "assay": "Meloidogyne test (Test Example 5, infected soil, lettuce)", "type": "in vivo", "conditions": "active compound concentration 5 ppm; lettuce root galls", "protocol": "as §1\nSolvent: 4 parts by weight of acetone\nas §2, §3, §4, §5"}},
  "data": [
    {"compound": "Fc1cccc(F)c1-c1cc(-c2cccs2)[nH]n1", "values": [
      {"measurement": "kill in % after 14 d", "setting": "Meloidogyne incognita [1]", "result": 100, "unit": "%"}
    ]},
    {"compound": "CC(C)(C)c1ccc(-c2cc(-c3cccs3)[nH]n2)cc1", "values": [
      {"measurement": "melting point", "result": "61 to 65", "unit": "°C"}
    ]},
    {"compound": "CCCc1c(-c2ccc(Cl)cc2)n[nH]c1-c1cccs1", "values": [
      {"measurement": "melting point", "result": "129 to 132", "unit": "°C"}
    ]},
    {"compound": "CSCc1c(-c2ccc(Cl)cc2)n[nH]c1-c1cccs1", "note": "[Compound 49, 3-(4-Chlorophenyl)-4-methylmercaptomethyl-5-(2-thienyl)-1H-pyrazole]", "values": [
      {"measurement": "Evalution (acetylcholine esterase inhibition, scale 0-3)", "setting": "[2]", "result": "3 (1, 2 and 3 weak, good and full activity (50-75, >75 and 100% enzyme inhibition, respectively))"},
      {"measurement": "Evolution (activity, scale 1-3)", "setting": "[3]", "result": "2 (2=good activity (>=50% more dead larvae than in the untreated control))"}
    ]},
    {"compound": "Fc1ccc(-c2cc(-c3cccs3)[nH]n2)cc1", "note": "[Compound 6, 3-(4-fluorophenyl)-5-(2-thienyl)-1H-pyrazole]", "values": [
      {"measurement": "Evalution (acetylcholine esterase inhibition, scale 0-3)", "setting": "[2]", "result": "3 (1, 2 and 3 weak, good and full activity (50-75, >75 and 100% enzyme inhibition, respectively))"},
      {"measurement": "Evaluation (controlling effect from root knot index)", "setting": "[4]", "result": "a (The controlling effect was in the range of 100 to 71%.)"},
      {"measurement": "Evolution (activity, scale 1-3)", "setting": "[3]", "result": "2 (2=good activity (>=50% more dead larvae than in the untreated control))"}
    ]},
    {"compound": "1-acetyl-3-(4-chlorophenyl)-5-(2-thienyl)-1H-pyrazole and 1-acetyl-3-(2-thienyl)-5-(4-chlorophenyl)-1H-pyrazole [Compound 58]", "values": [
      {"measurement": "Evaluation (controlling effect from root knot index)", "setting": "[4]", "result": "a (The controlling effect was in the range of 100 to 71%.)"}
    ]},
    {"compound": "CCc1ccc(-c2cc(-c3cccs3)[nH]n2)cc1", "note": "[Compound 11]", "values": [
      {"measurement": "Evaluation (controlling effect from root knot index)", "setting": "[4]", "result": "a (The controlling effect was in the range of 100 to 71%.)"}
    ]},
    {"compound": "C=C(C)C(=O)n1nc(-c2ccc(Cl)cc2)cc1-c1cccs1", "values": [
      {"measurement": "kill (%)", "setting": "Meloidogyne incognita [5]", "result": 100, "unit": "%"}
    ]},
    {"compound": "Clc1ccc(-c2cc(-c3cccs3)[nH]n2)cc1", "note": "[Compound 7, 3-(4-chlorophenyl)-5-(2-thienyl)-1H-pyrazole]", "values": [
      {"measurement": "melting point", "result": 217, "unit": "°C"},
      {"measurement": "Evaluation (controlling effect from root knot index)", "setting": "[4]", "result": "a (The controlling effect was in the range of 100 to 71%.)"}
    ]},
    {"compound": "COc1ccc(-c2cc(-c3cccs3)n[nH]2)cc1", "note": "[compound 2, 3-(2-Thienyl)-5-(4-methoxyphenyl)-1H-pyrazole, reference compound]", "values": [
      {"measurement": "Evaluation (controlling effect from root knot index)", "setting": "[4]", "result": "d (The controlling effect was 0%.)"}
    ]},
    {"compound": "CCc1c(-c2ccc(Cl)cc2)n[nH]c1-c1cccs1", "note": "[Compound 46]", "values": [
      {"measurement": "Evalution (acetylcholine esterase inhibition, scale 0-3)", "setting": "[2]", "result": "3 (1, 2 and 3 weak, good and full activity (50-75, >75 and 100% enzyme inhibition, respectively))"},
      {"measurement": "Evolution (activity, scale 1-3)", "setting": "[3]", "result": "2 (2=good activity (>=50% more dead larvae than in the untreated control))"}
    ]},
    {"compound": "Ic1ccc(-c2cc(-c3cccs3)[nH]n2)cc1", "note": "[Compound 9]", "values": [
      {"measurement": "Evalution (acetylcholine esterase inhibition, scale 0-3)", "setting": "[2]", "result": "3 (1, 2 and 3 weak, good and full activity (50-75, >75 and 100% enzyme inhibition, respectively))"},
      {"measurement": "Evaluation (controlling effect from root knot index)", "setting": "[4]", "result": "a (The controlling effect was in the range of 100 to 71%.)"}
    ]},
    {"compound": "c1ccc(-c2cc(-c3cccs3)n[nH]2)cc1", "note": "[compound 1, 3-(2-Thienyl)-5-phenyl-1H-pyrazole, reference compound]", "values": [
      {"measurement": "Evaluation (controlling effect from root knot index)", "setting": "[4]", "result": "c (The controlling effect was less than 50%.)"}
    ]},
    {"compound": "FC(F)(F)Oc1ccc(-c2cc(-c3cccs3)[nH]n2)cc1", "note": "[Compound 26]", "values": [
      {"measurement": "Evaluation (controlling effect from root knot index)", "setting": "[4]", "result": "a (The controlling effect was in the range of 100 to 71%.)"}
    ]}
  ]
}
